{
  "source": "paper PMC13095657",
  "about": "“A two-step mechanism for sugar translocation” (Nature Structural & Molecular Biology, 2026)",
  "origin": "cited, not measured here",
  "biological_target": "T1, XylE (Escherichia coli, UniProt P0AGF4)",
  "T1 construct": "made in house; host or cells: E. coli BL21-Gold (DE3)",
  "T1 sequence (P0AGF4 whole entry)": "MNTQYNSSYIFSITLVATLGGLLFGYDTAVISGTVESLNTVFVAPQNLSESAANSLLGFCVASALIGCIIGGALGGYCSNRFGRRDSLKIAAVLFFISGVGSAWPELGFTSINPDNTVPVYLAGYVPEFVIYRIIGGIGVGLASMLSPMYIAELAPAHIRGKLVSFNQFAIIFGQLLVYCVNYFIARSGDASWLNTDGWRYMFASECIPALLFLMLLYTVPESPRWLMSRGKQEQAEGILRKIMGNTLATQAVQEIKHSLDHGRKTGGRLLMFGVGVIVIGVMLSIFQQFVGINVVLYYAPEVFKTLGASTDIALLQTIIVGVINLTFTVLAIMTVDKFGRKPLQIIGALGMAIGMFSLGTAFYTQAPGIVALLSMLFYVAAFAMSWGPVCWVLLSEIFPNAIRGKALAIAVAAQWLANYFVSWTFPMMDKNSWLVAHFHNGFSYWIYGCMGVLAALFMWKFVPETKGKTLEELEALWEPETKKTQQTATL",
  "settings": "XylE WT in liposomes; ref https://www.jbc.org/action/showPdf?pii=S0021-9258%2821%2901315-6; read-out: KM by SSM",
  "data": [
    {"smiles": "OC1OC[C@@H](O)[C@H](O)[C@H]1O", "note": "(stereo partly drawn) [D-xylose]", "values": [
      {"measurement": "Km", "value": 1700, "unit": "µM"}
    ]}
  ]
}
